The text below walks through data of the Deep4Chem optical property database.

Molecules are shown by their SMILES.

The nature of the data set: solvent given as SMILES.

As for `CCCCn1c2ccc(C#N)cc2c2cc(C#N)cc(-c3ccc(N(c4ccccc4)c4ccccc4)cc3)c21`, the emission maximum was determined as 407 nm (in C1CCCCC1); 440 nm (in C1CCOC1); 474 nm (in CC#N); 412 nm (in CCCCOCCCC); 410.48 nm (in CCN(CC)CC); 438 nm (in CCOC(C)=O). Also, the emission maximum is, setting by setting: (in CCOCC) 424 nm; (in CN(C)C=O) 472 nm; (in Cc1ccccc1) 415 nm; (in ClC=C(Cl)Cl) 420 nm; (in ClCCl) 447 nm.

Take `CC(=O)c1ccc(-c2cnc3nn4ccccc4c3n2)cc1`: the emission maximum (in C1CCOC1) worked out at 455 nm.

Consider `Cc1ccc2c(c1)C1(c3ccccc3-c3ccccc31)c1cc(C)ccc1N2c1ccc(-c2ncccn2)cc1`, for which the emission maximum by setting is: (in Cc1ccccc1) 461 nm; (in O=P(c1ccccc1)(c1ccccc1)c1ccc2oc3ccc(P(=O)(c4ccccc4)c4ccccc4)cc3c2c1) 466 nm.

As to `CCOC(=O)CSc1nc(-c2ccccc2)c(C)c(C#N)c1C#N`, the emission maximum is listed as 414 nm (in C1COCCO1); 426 nm (in CC#N); 434 nm (in CCO); 421 nm (in CCOC(C)=O); 435 nm (in ClC(Cl)Cl); 421 nm (in c1ccccc1).

`C(#Cc1nc(C#Cc2cccs2)c(C#Cc2cccs2)c(C#Cc2cccs2)c1C#Cc1cccs1)c1cccs1` yielded an emission maximum (in ClCCl) of 441 nm.

In the case of `CC1(C)CC(=O)c2c(F)c(F)cc(F)c2N1`, the emission maximum runs as follows: (in CC#N) 459 nm; (in CCO) 499 nm.

`CCCCn1c(-c2ccc(-c3nnc(-c4cccs4)o3)cc2)nc(-c2ccccc2)c1-c1ccccc1` yielded an emission maximum (in ClCCl) of 444 nm.

For the compound `N#Cc1cnc(-c2c3ccccc3c(-c3ncc(C#N)cn3)c3ccccc23)nc1`, the emission maximum runs as follows: (in CCO) 503 nm; (in ClCCl) 500 nm.

`c1ccc(-c2nc(-c3ccccc3)nc(-c3ccc(-n4c5ccccc5c5cc6c(cc54)C4c5ccccc5C6c5ccccc54)cc3)n2)cc1` gave an emission maximum (in Cc1ccccc1) of 432 nm and an emission maximum (in O=P(c1ccccc1)(c1ccccc1)c1ccccc1Oc1ccccc1P(=O)(c1ccccc1)c1ccccc1) of 457 nm.

For the compound `CCCCCCOc1ccc(/C=C/c2ccc(N(c3ccc(/C=C/c4ccc(OCCCCCC)cc4)cc3)c3ccc(-c4nc5ccccc5nc4-c4ccc(N(c5ccc(/C=C/c6ccc(OCCCCCC)cc6)cc5)c5ccc(/C=C/c6ccc(OCCCCCC)cc6)cc5)cc4)cc3)cc2)cc1`, the emission maximum reads like this: (in C1CCOC1) 518 nm; (in Cc1ccccc1) 505 nm.

`COc1ccc(-c2c3ccc([nH]3)c3nc(c(-c4ccc([N+](=O)[O-])cc4)c4ccc([nH]4)c4ccc([nH]4)c(-c4ccc(OC)cc4)c4ccc2o4)C=C3)cc1`: the emission maximum is given as 761 nm (in C1CCOC1), 739 nm (in Cc1ccccc1) and 739 nm (in c1ccccc1).

As for `C(=C\c1cnccn1)/c1ccc(N(c2ccccc2)c2ccccc2)cc1`, the emission maximum by setting is: (in C1CCOC1) 487 nm; (in CC#N) 535 nm; (in CCCCCCC) 433 nm; (in CS(C)=O) 537 nm; (in ClCCl) 543 nm.

Consider `Cc1ccc2nc3c4c(c5ccccc5c3nc2c1)OC(=O)CC4c1ccc(C(F)(F)F)cc1` (stereo not drawn), for which the emission maximum (in ClC(Cl)Cl) was found to be 430 nm.

For the compound `COc1ccc(-c2sc3c(-c4ccc(OC)cc4)c4n(c3c2-c2ccc(OC)cc2)[B-](F)(F)[N+]2=Cc3c(-c5ccc(OC)cc5)c5sc(-c6ccc(OC)cc6)c(-c6ccc(OC)cc6)c5n3[B-](F)(F)[N+]2=C4)cc1`, the emission maximum was determined as 641 nm (in CC#N); 630 nm (in CCCCCC); 654 nm (in CN(C)C=O); 649 nm (in Cc1ccccc1); 648 nm (in ClCCl).

On to `COc1ccc(-c2cc3c(s2)=CC2=C(C(F)(F)F)c4cc5sc(-c6ccc(OC)cc6)cc5n4[B-](F)(F)[N+]=32)cc1`, for which the emission maximum runs as follows: (in C1CCOC1) 754 nm; (in ClC(Cl)Cl) 754 nm.

`CCCCOc1ccc(/C=C/C2=[N+]3C(=C(c4ccc(I)cc4)c4c(/C=C/c5ccc(N(C)C)cc5)cc(/C=C/c5ccc(OC)cc5)n4[B-]3(F)F)C(/C=C/c3ccc(OCCOCCOC)cc3)=C2)cc1` registered an emission maximum (in C1COCCO1) of 714 nm.

As for `O=Cc1cc(O)c(C=O)cc1O`, the emission maximum is, setting by setting: (in C1CCOC1) 468 nm; (in C1COCCO1) 468 nm; (in CC#N) 474 nm; (in CC(C)=O) 470 nm; (in CCCO) 491 nm; (in CCO) 491 nm. The emission maximum was determined as 492 nm (in CN(C)C=O); 493 nm (in CN(C)P(=O)(N(C)C)N(C)C); 479 nm (in CNC=O); 492 nm (in CO); 495 nm (in CS(C)=O); 490 nm (in NC=O).

For the setting “in ClCCl”, `Cc1ccc(C2=[N+]3C(=Nc4c5ccccc5c(-c5ccc(C)s5)n4[B-]3(F)F)c3ccccc32)s1` registered an emission maximum of 841 nm.

Turning to `COc1ccc(/C=C/C2=[O+][B-](F)(F)OC(/C=C/c3ccc(OC)cc3)=C2c2ccccc2)cc1`, the emission maximum by setting is: (in CC#N) 564 nm; (in CC(C)=O) 549 nm; (in CCOC(C)=O) 534 nm; (in CCOCC) 520 nm; (in ClC(Cl)(Cl)Cl) 515 nm; (in ClCCl) 554 nm.

`CCCCCN1c2ccccc2Sc2cc(/C=C/c3ccc(/C=C(\C#N)C(=O)O)s3)ccc21` gave an emission maximum (in ClCCl) of 704 nm.

For `c1ccc(-c2cc(-c3nnc(-c4ccc(N5c6ccccc6Oc6ccccc65)cc4)o3)c(-c3ccccc3)c(-c3ccccc3)c2-c2ccccc2)cc1`, the emission maximum is 495 nm (in Cc1ccccc1) and 495 nm (in c1ccc(-n2c(-c3c(-n4c5ccccc5c5ccccc54)cccc3-n3c4ccccc4c4ccccc43)nc3ccccc32)cc1).

On to `C(=C\c1cc2ccccc2c2ccccc12)/c1cc2ccccc2c2ccccc12`, for which the emission maximum (in C1CCOC1) was determined as 416 nm.

Compound `CCCCCCCCCCCCOc1ccc(C2=C3C(=O)N(CC(OCC)OCC)C(c4ccc(OCCCCCCCCCCCC)c(OCCCCCCCCCCCC)c4)=C3C(=O)N2CC(OCC)OCC)cc1OCCCCCCCCCCCC` showed an emission maximum (in ClC(Cl)Cl) of 541 nm.

Take `O=c1c2cc(-n3c4ccccc4c4ccccc43)ccc2sc2ccc(-n3c4ccccc4c4ccccc43)cc12`: the emission maximum reads like this: (in C1CCOC1) 460 nm; (in CCCCCC) 438 nm; (in Cc1ccccc1) 455.5 nm; (in ClC(Cl)Cl) 493.5 nm; (in ClCCl) 495 nm.

Compound `Cc1ccc2c(c1)B(c1c(C(C)C)cc(C(C)C)cc1C(C)C)c1cc(C)cc3c1N2c1ccc(C)cc1B3c1c(C(C)C)cc(C(C)C)cc1C(C)C` had an emission maximum (in ClCCl) of 482 nm.

The compound `CC(C)(C)c1cccc2c([O-])cccc12` showed an emission maximum (in O) of 443 nm.

Regarding `CCN1C(=CC=Cc2n(CC)c3cc(Cl)c(Cl)cc3[n+]2CC)N(CC)c2cc(Cl)c(Cl)cc21`, the emission maximum came out at 529 nm (in CC#N); 535 nm (in CCCCCCO); 534 nm (in CCCCO); 532 nm (in CCCO); 530 nm (in CCO); 528 nm (in CO). The emission maximum is, setting by setting: (in CS(C)=O) 536 nm; (in OCC(O)CO) 535 nm; (in OCCO) 532 nm.

`CCCCCCC(CCCCCC)N1C(=O)c2cccc3c(-c4ccc(-c5ccc(OC)cc5)cc4)ccc(c23)C1=O`: the emission maximum (in CCCCCC) came to 426.8 nm; the emission maximum (in CCCCCCCCCCCCCC) is on record as 436.7 nm; the emission maximum (in CCCCCCCCCCCO) is reported as 518.2 nm; the emission maximum (in CCCCO) is listed as 556.6 nm; the emission maximum (in CN(C)C=O) amounted to 583.4 nm; the emission maximum (in Cc1ccccc1) was 454.6 nm. Where the note is “in ClC(Cl)Cl”, this compound showed an emission maximum of 492.2 nm.

In the case of `Cc1cc(O)c(C(=O)/C=C/c2ccccc2O)c(=O)o1`, the emission maximum stood at 510 nm (in CC#N) and 477 nm (in ClCCl).

As for `N#Cc1nn(-c2c(Cl)cccc2Cl)nc1N1CCCC1`, the emission maximum (in CC#N) turned out to be 418 nm.

In the case of `CCCCCCOc1ccc(-c2cnc(-c3nnc(-c4ccc(OCCCCCC)cc4)o3)o2)cc1`, the emission maximum was found to be 370 nm (in C1CCCCC1); 386 nm (in C1CCOC1); 400 nm (in CC#N); 411 nm (in CCO); 419 nm (in CO); 390 nm (in ClC(Cl)Cl).

For the setting “in ClC(Cl)Cl”, `O=C1NC(=O)c2ccc(N3CCCCC3)c3cccc1c23` showed an emission maximum of 517 nm.

As to `COc1cc2cc(-c3cc4cc(OC)c(OC)cc4oc3=O)oc2cc1OC`, the emission maximum was 493 nm (in CC#N); 478 nm (in CCOC(C)=O); 500 nm (in CS(C)=O); 475 nm (in Cc1ccccc1); 435 nm (in O).

In the case of `COC(=O)c1c(-c2cc3ccccc3oc2=O)nn(-c2cccc(Cl)c2)c1C(=O)OC`, where the note is “in ClCCl”, the emission maximum is recorded as 418 nm.

The compound `CC(C)(C)c1cc(-c2c3cc(c(-c4cc(C(C)(C)C)cc(C(C)(C)C)c4)c4ccc([nH]4)c(-c4ccc([N+](=O)[O-])cc4)c4nc(c(-c5ccc([N+](=O)[O-])cc5)c5ccc2[nH]5)C=C4)N=C3)cc(C(C)(C)C)c1` had an emission maximum (in ClCCl) of 741 nm.

Regarding `c1ccc2c(c1)-c1sc3ccccc3c1C21c2ccccc2-c2sc3ccccc3c21`, where the note is “in ClCCl”, the emission maximum is reported as 368 nm.

The compound `OC1(c2ccc(-c3cccs3)s2)CCC(c2ccccc2)CC1` (stereo not drawn) gave an emission maximum (in C1CCOC1) of 471 nm; an emission maximum (in CC#N) of 468 nm; an emission maximum (in CCCCCC) of 464 nm; an emission maximum (in CCO) of 460 nm; an emission maximum (in OCCOCCO) of 384 nm; an emission maximum (in c1ccncc1) of 385 nm.
